pEC50: −log10 of the molar value.
biological target: T1, human APJ receptor (Homo sapiens, UniProt P35414); assay: Intracellular cAMP accumulation assay (APJ hcAMP, HTRF); format: cell-based; settings: HEK293 cells stably expressing human APJ receptor; inhibition of forskolin-mediated cAMP production; read-out: APJ cAMP Potency range
T1 construct: expressed in transfected cells; host or cells: HEK293
T1 sequence (P35414 1-380): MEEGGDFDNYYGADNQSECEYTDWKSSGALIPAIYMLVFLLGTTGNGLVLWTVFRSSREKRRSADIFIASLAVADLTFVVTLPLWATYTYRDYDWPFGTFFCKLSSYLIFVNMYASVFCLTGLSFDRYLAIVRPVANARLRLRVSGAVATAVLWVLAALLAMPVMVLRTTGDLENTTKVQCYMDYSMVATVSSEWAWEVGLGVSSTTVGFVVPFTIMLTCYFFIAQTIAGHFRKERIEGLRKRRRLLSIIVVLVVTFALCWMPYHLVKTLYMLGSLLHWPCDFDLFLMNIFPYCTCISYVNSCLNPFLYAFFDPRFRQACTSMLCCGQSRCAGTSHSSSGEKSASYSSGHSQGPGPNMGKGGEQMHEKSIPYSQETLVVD
Experimental: Intracellular cAMP Accumulation Assay
HEK293 cells stably expressing human APJ receptor were used to assess the activity of compounds. Cultured cells were detached and resuspended in the cAMP Homogeneous Time-Resolved Fluorescence (HTRF) assay buffer (Cisbio cat; #62AM4PEJ). The assay was performed in 384-well assay plates (Perkin-Elmer; cat #6008289) according to assay protocol provided by the manufacturer. Serial dilutions of a compound together with assay buffer containing […] IBMX and 2 μM forskolin were added to each well containing 5,000 cells and incubated for 30 minutes at room temperature. Subsequently, cAMP D2 reagent was added in the lysis buffer followed by the EuK antibody (Cisbio; cat #62AM4PEJ) and incubated for 60 min. The fluorescence emission ratio was measured using fluorometer. The intracellular cAMP concentrations (compound-stimulated inhibition of forskolin-mediated cAMP production) were calculated by extrapolation from a standard curve using known cAMP concentrations. The EC50 values were obtained by fitting the data to a sigmoidal concentration-response curve with variable slope. The maximal achievable inhibition of forskolin-induced cAMP levels (Ymax) for each compound was expressed as relative percentage of inhibition attained using pyroglutamated apelin-13 ((Pyr1)apelin-13) peptide, which was set to 100%.
The examples disclosed below were tested in the APJ in vitro assays described above and were found having human APJ cyclic AMP (hcAMP) activity. The EC50 value of each compound is presented at the end of the example description.
The biological activity of the exemplified compounds of this invention determined by the assay described above is shown at the end of each example.

SMILES | pEC50
CCCCc1nc(O)c(Cc2ccc(OC)cc2)c(=O)n1-c1c(OC)cccc1OC [Example 2, 2-butyl-3-(2,6-dimethoxyphenyl)-6-hydroxy-5-[(4-methoxyphenyl)methyl]-3,4-dihydropyrimidin-4-one] | 7.00 to 8.00
CCCCc1nc(O)c(Cc2ccc(OC)cc2)c(=O)n1-c1ccccc1OC [Example 3, 2-butyl-6-hydroxy-3-(2-methoxyphenyl)-5-[(4-methoxyphenyl)methyl]-3,4-dihydropyrimidin-4-one] | 6.52 to 7.00
CCCCc1nc(O)c(Cc2ccc(-n3cccn3)cc2)c(=O)n1-c1c(OC)cccc1OC [Example 5, 2-butyl-3-(2,6-dimethoxyphenyl)-6-hydroxy-5-{[4-(1H-pyrazol-1-yl)phenyl]methyl}-3,4-dihydropyrimidin-4-one] | 8.00 to 11.00
CCCCc1nc(O)c(Cc2ccc(-c3ncon3)cc2F)c(=O)n1-c1c(OC)cccc1OC [Example 6, 2-butyl-3-(2,6-dimethoxyphenyl)-5-{[2-fluoro-4-(1,2,4-oxadiazol-3-yl)phenyl]methyl}-6-hydroxy-3,4-dihydropyrimidin-4-one] | 8.00 to 11.00
CCCCc1nc(O)c(Cc2ccc(S(C)(=O)=O)cc2)c(=O)n1-c1c(OC)cccc1OC [Example 7, 2-butyl-3-(2,6-dimethoxyphenyl)-6-hydroxy-5-[(4-methanesulfonylphenyl)methyl]-3,4-dihydropyrimidin-4-one] | 7.00 to 8.00
CCCCc1nc(O)c(Cc2cc(C)on2)c(=O)n1-c1c(OC)cccc1OC [Example 8, 2-butyl-3-(2,6-dimethoxyphenyl)-6-hydroxy-5-[(5-methyl-1,2-oxazol-3-yl)methyl]-3,4-dihydropyrimidin-4-one] | 7.00 to 8.00
CCCCc1nc(O)c(Cc2ccc(NC(C)=O)cc2)c(=O)n1-c1c(OC)cccc1OC [Example 9, N-(4-{[2-butyl-1-(2,6-dimethoxyphenyl)-4-hydroxy-6-oxo-1,6-dihydropyrimidin-5-yl]methyl}phenyl)acetamide] | 7.00 to 8.00
CCCCc1nc(O)c(Cc2ccc(-c3nc(C)no3)cc2)c(=O)n1-c1c(OC)cccc1OC [Example 10, 2-butyl-3-(2,6-dimethoxyphenyl)-6-hydroxy-5-{[4-(3-methyl-1,2,4-oxadiazol-5-yl)phenyl]methyl}-3,4-dihydropyrimidin-4-one] | 8.00 to 11.00
CCCCc1nc(O)c(Cc2coc(-c3ccc(Cl)cc3)n2)c(=O)n1-c1c(OC)cccc1OC [Example 11, 2-butyl-5-{[2-(4-chlorophenyl)-1,3-oxazol-4-yl]methyl}-3-(2,6-dimethoxyphenyl)-6-hydroxy-3,4-dihydropyrimidin-4-one] | 8.00 to 11.00
CCCCc1nc(O)c(Cc2ccc(-c3csnn3)cc2)c(=O)n1-c1c(OC)cccc1OC [Example 12, 2-butyl-3-(2,6-dimethoxyphenyl)-6-hydroxy-5-{[4-(1,2,3-thiadiazol-4-yl)phenyl]methyl}-3,4-dihydropyrimidin-4-one] | 8.00 to 11.00
CCCCc1nc(O)c(Cc2ccc(-c3ncon3)c(F)c2)c(=O)n1-c1c(OC)cccc1OC [Example 13, 2-butyl-3-(2,6-dimethoxyphenyl)-5-{[3-fluoro-4-(1,2,4-oxadiazol-3-yl)phenyl]methyl}-6-hydroxy-3,4-dihydropyrimidin-4-one] | 8.00 to 11.00

Now from value to molecule:

pEC50 | SMILES
8.00 to 11.00 | CCCCc1nc(O)c(Cc2ccc(-c3ccc(Cl)cc3)nc2)c(=O)n1-c1c(OC)cccc1OC [Example 14, 2-butyl-5-{[6-(4-chlorophenyl)pyridin-3-yl]methyl}-3-(2,6-dimethoxyphenyl)-6-hydroxy-3,4-dihydropyrimidin-4-one]
7.00 to 8.00 | CCCCc1nc(O)c(Cc2ccc(C(=O)NCC)cc2)c(=O)n1-c1c(OC)cccc1OC [Example 15, 4-{[2-butyl-1-(2,6-dimethoxyphenyl)-4-hydroxy-6-oxo-1,6-dihydropyrimidin-5-yl]methyl}-N-ethylbenzamide]
7.00 to 8.00 | COc1cccc(OC)c1-n1c(CCC(C)C)nc(O)c(Cc2ccc(NC(C)=O)cc2)c1=O [Example 16, N-(4-{[1-(2,6-dimethoxyphenyl)-4-hydroxy-2-(3-methylbutyl)-6-oxo-1,6-dihydropyrimidin-5-yl]methyl}phenyl)acetamide]
7.00 to 8.00 | COc1cccc(OC)c1-n1c(CCC(C)C)nc(O)c(Cc2ccc(-c3ncon3)cc2)c1=O [Example 17, 3-(2,6-dimethoxyphenyl)-6-hydroxy-2-(3-methylbutyl)-5-{[4-(1,2,4-oxadiazol-3-yl)phenyl]methyl}-3,4-dihydropyrimidin-4-one]
7.00 to 8.00 | COc1cccc(OC)c1-n1c(CCC(C)C)nc(O)c(Cc2coc(-c3ccc(Cl)cc3)n2)c1=O [Example 18, 5-{[2-(4-chlorophenyl)-1,3-oxazol-4-yl]methyl}-3-(2,6-dimethoxyphenyl)-6-hydroxy-2-(3-methylbutyl)-3,4-dihydropyrimidin-4-one]
7.00 to 8.00 | CCCCc1nc(O)c(Cc2ccccc2)c(=O)n1-c1c(OC)cccc1OC [Example 19, 5-benzyl-2-butyl-3-(2,6-dimethoxyphenyl)-6-hydroxy-3,4-dihydropyrimidin-4-one]
8.00 to 11.00 | CCCCc1nc(O)c(Cc2nc(-c3ccc(C(F)(F)F)cc3)no2)c(=O)n1-c1c(OC)cccc1OC [Example 20, 2-butyl-3-(2,6-dimethoxyphenyl)-6-hydroxy-5-({3-[4-(trifluoromethyl)phenyl]-1,2,4-oxadiazol-5-yl}methyl)-3,4-dihydropyrimidin-4-one]
7.00 to 8.00 | COc1cccc(OC)c1-n1c(CCC(C)C)nc(O)c(Cc2nnc(-c3ccc(C)cc3)o2)c1=O [Example 21, 3-(2,6-dimethoxyphenyl)-6-hydroxy-2-(3-methylbutyl)-5-{[5-(4-methylphenyl)-1,3,4-oxadiazol-2-yl]methyl}-3,4-dihydropyrimidin-4-one]
7.00 to 8.00 | CCCCc1nc(O)c(Cc2csc(-c3ccc(Cl)cc3)n2)c(=O)n1-c1c(OC)cccc1OC [Example 22, 2-butyl-5-{[2-(4-chlorophenyl)-1,3-thiazol-4-yl]methyl}-3-(2,6-dimethoxyphenyl)-6-hydroxy-3,4-dihydropyrimidin-4-one]
7.00 to 8.00 | CCCCc1nc(O)c(Cc2csc(-c3ccc(C)cc3)n2)c(=O)n1-c1c(OC)cccc1OC [Example 23, 2-butyl-3-(2,6-dimethoxyphenyl)-6-hydroxy-5-{[2-(4-methylphenyl)-1,3-thiazol-4-yl]methyl}-3,4-dihydropyrimidin-4-one]
8.00 to 11.00 | CCCCc1nc(O)c(Cc2ccn(-c3ccc(Cl)cc3)n2)c(=O)n1-c1c(OC)cccc1OC [Example 24, 2-butyl-5-{[1-(4-chlorophenyl)-1H-pyrazol-3-yl]methyl}-3-(2,6-dimethoxyphenyl)-6-hydroxy-3,4-dihydropyrimidin-4-one]
8.00 to 11.00 | CCCCc1nc(O)c(Cc2cnn(-c3ccc(C)cc3)c2)c(=O)n1-c1c(OC)cccc1OC [Example 25, 2-butyl-3-(2,6-dimethoxyphenyl)-6-hydroxy-5-{[1-(4-methylphenyl)-1H-pyrazol-4-yl]methyl}-3,4-dihydropyrimidin-4-one]

same assay, conditions: HEK293 cells stably expressing human APJ receptor; inhibition of forskolin-mediated cAMP production; read-out: Human APJ cAMP EC50 potency range

pEC50 | SMILES
7.00 to 8.00 | CCCCc1nc(=O)c(Cc2ccc(Br)cc2)c(O)n1[C@@H](CC)c1cccc(C#N)c1 [Compound 95i, (S)-3-(1-(5-(4-bromobenzyl)-2-butyl-6-hydroxy-4-oxopyrimidin-1(4H)-yl)propyl)benzonitrile]
6.52 to 7.00 | CCOCc1nc(O)c(Cc2ccc(-n3ccccc3=O)cc2)c(=O)n1-c1c(OC)cccc1OC [Example 1]

Reference: patent publication US11390616B2 (BRISTOL-MYERS SQUIBB COMPANY, priority 2015, dated 2022)
